Assay results as given in paper PMC5908160, “Inhibition of sperm motility in male macaques with EP055, a potential non-hormonal male contraceptive” (PLoS ONE, 2018).

Assay: Blood constituents and health monitoring in rhesus males after EP055 infusion
Format: in vivo, Macaca mulatta
Set-up: Hematocrit: unit not given here
From the text: The physical and behavioral condition of animals are monitored daily at ONPRC. Additional monitoring by Division of Comparative Medicine and/or clinical veterinary staff was provided immediately, at 1 hr, 2 hr and 6 hr post-administration of the contraceptive compound, and daily for up to 30 days after the final drug injection. Criteria used to assess animal health and welfare include: stool and urine quality and quantity, appetite and attitude (bright and alert, quiet, lethargic), pain (not eating, not moving, hunched over, lethargy/disinterest), vomiting, diarrhea, nausea, dehydration (unkempt coat, lack of urine production), and signs of wounds of injury. In addition, the ONPRC Standardized Pain Scoring system is used post-surgically to monitor an animal’s progress and improvement over time. Major criteria include animal appearance, posture, activity (including stool and urine production), vocalization and atypical behaviors.
Prior to infusion of EP055, each male was sedated with ketamine by the surgical staff at ONPRC and transported to the operating room. After positioning in dorsal recumbency, the male was intubated and placed under inhalant (isoflurane) anesthesia. Bilateral intravenous catheters were placed in cephalic veins, one for infusion and one for back-up. A percutaneous arterial line was placed in the right femoral artery for direct blood pressure measurement. Invasive blood pressure, heart rate, SpO2, and respirations were monitored by the surgical staff throughout the procedure. Initially, the low doses of EP055 in 5% DMSO-PBS 7.6 was infused by i.v. at 75-80 mg/kg, using a Medfusion 3500 pump (Smiths Medical, St. Paul, MN), and was started at a low flow rate ([…]). In 3 of 4 males, a 5-10% increase in blood pressure and heart rate were noted within the first 2-3 minutes of infusion of EP055. In these cases, the infusion was temporarily suspended until these parameters subsequently declined to normal. The infusion rate was then doubled to 1.2 ml/kg/min after 5-10 minutes and the final volume of EP055 infusate was administered. Blood pressure and heart rate remained normal throughout the rest of the infusion interval. The total volume of EP055 infusate ranged from 72 ml – 136 ml, depending upon the weight of the animal, and the duration of infusion was 10-13 minutes. Following completion of the infusion, all animals recovered normally. Animals were monitored by clinical veterinary staff immediately, at 1 hr, 2 hr and 6-8 hr post-infusion, and daily for up to 30 days after the final infusion of EP055. […] Two weeks after the infusion of the low dose and collection of the next set of baseline semen samples, males were infused with the high dose of EP055 (125-130 mg/kg) as described above, and monitored similarly.
Blood was collected from the brachial vein at the time of each semen collection, and used to determine complete blood counts and serum biochemistry tests (including electrolytes, glucose, lipids, proteins, enzymes and metabolic by-products) as performed in the Clinical Pathology Laboratory in the Division of Comparative Medicine at ONPRC.

[1] = post high dose 125–130 mg/kg, 6-8 hrs
[2] = post high dose 125–130 mg/kg, 28-30 hrs
[3] = post high dose 125–130 mg/kg, 78 hr
[4] = post low dose 75–80 mg/kg, 6-8 hrs

For COC(=O)NNc1nc(Nc2ccc(NC(C)=O)c(O)c2)nc(SCC(=O)O)n1 [EP055], the “increase in blood pressure and heart rate” value (3 of 4 males, first 2-3 minutes of low dose infusion (75-80 mg/kg)) was 5-10%, the “blood constituents versus baseline levels” value (after low or high dose) was “no clinically significant difference” and the “side effects, monitoring of blood and organ function” value (during and after drug administration) was “no indications of any side effects or health warning signs”. The “ALT (alanine aminotransferase) and glucose levels” value (during treatment) was “rose during treatment”, the adverse effects (high dose 125-130 mg/kg) was “no adverse effects were observed” and the “neutrophil numbers versus reference range (2.4–9.6 x 10^3/mm^3)” value (high dose, 6 hrs) was “slightly above the high end of the reference range”. The “long-term effects on animals” value (in vivo) was “no long- term effects”, the adverse effects (low dose 75-80 mg/kg, monitored up to 30 days) was “No adverse effects were observed” and the ALT [1] was 49.7 ± 3.6 U/l. For the same compound, the AST [1] was 68.3 ± 6.8 U/l, the Albumin [1] was 4.7 ± 0.1 g/dL and the “Alkaline Phosphatase” value [1] was 94.0 ± 4.8 U/l. For the same compound, the BUN [1] was 18.8 ± 2.3 mg/dL, the Basophils [1] was 0.5 ± 0.1% and the CREAT [1] was 1.0 ± 0.1 mg/dL. It also gave a Chloride [1] of 108.7 ± 0.3 mEq/l, a Cholesterol [1] of 146.3 ± 18.1 mg/dL and an Eosinophils [1] of 0.9 ± 0.1%. The Erythrocytes [1] was 6.1 ± 0.2 x 10^6/mm^3, the GGT [1] was 71.0 ± 1.0 U/l and the GLUC [1] was 101.3 ± 10.2 mg/dL. The Hematocrit [1] was 45.2 ± 1.0, the Hemoglobin [1] was 14.7 ± 0.4 g/dL and the Leukocytes [1] was 12.3 ± 1.8 x 10^3/mm^3. The Lymphocytes [1] was 21.6 ± 9.9%, the MCH [1] was 24.2 ± 0.4 pg/cell and the MCHC [1] was 32.5 ± 0.1 g/dL. For the same compound, the MCV [1] was 74.5 ± 1.1 fl/cell, the Magnesium [1] was 2.2 ± 0.1 mg/dL and the Monocytes [1] was 5.2 ± 0.4%. For the same compound, the Neutrophils [1] was 10.3 ± 1.4 x 10^3/mm^3, the Phosphorus [1] was 5.2 ± 0.4 mg/dL and the Platelets [1] was 298.3 ± 39.0 x 10^6. For the same compound, the Potassium [1] was 4.0 ± 0.1 mEq/l, the Sodium [1] was 147.7 ± 0.6 mEq/l and the “Total Bilirubin” value [1] was 0.2 ± 0.1 mg/dL. The “Total Protein” value [1] was 7.6 ± 0.2 g/dL, the Triglycerides [1] was 84.3 ± 19.8 mg/dL and the ALT [2] was 74.0 ± 10.8 U/l. The AST [2] was 83.3 ± 14.3 U/l, the Albumin [2] was 4.7 ± 0.1 g/dL and the “Alkaline Phosphatase” value [2] was 95.7 ± 3.6 U/l. The BUN [2] was 15.3 ± 2.4 mg/dL, the Basophils [2] was 0.5 ± 0.1% and the CREAT [2] was 1.0 ± 0.0 mg/dL. It also gave a Chloride [2] of 108.7 ± 0.6 mEq/l, a Cholesterol [2] of 147.3 ± 23.4 mg/dL and an Eosinophils [2] of 1.4 ± 0.1%. For the same compound, the Erythrocytes [2] was 6.1 ± 0.2 x 10^6/mm^3, the GGT [2] was 71.3 ± 3.4 U/l and the GLUC [2] was 92.0 ± 9.7 mg/dL. The Hematocrit [2] was 45.9 ± 0.9, the Hemoglobin [2] was 15.0 ± 0.4 g/dL and the Leukocytes [2] was 7.7 ± 1.4 x 10^3/mm^3. The Lymphocytes [2] was 32.4 ± 4.3%, the MCH [2] was 24.4 ± 0.3 pg/cell and the MCHC [2] was 32.7 ± 0.2 g/dL. For the same compound, the MCV [2] was 74.8 ± 1.0 fl/cell, the Magnesium [2] was 1.9 ± 0.0 mg/dL and the Monocytes [2] was 5.5 ± 0.6%. The Neutrophils [2] was 5.1 ±0.8 x 10^3/mm^3, the Phosphorus [2] was 3.2 ± 0.6 mg/dL and the Platelets [2] was 301.7 ± 36.5 x 10^6. The Potassium [2] was 4.0 ± 0.1 mEq/l, the Sodium [2] was 149.0 ± 0.0 mEq/l and the “Total Bilirubin” value [2] was 0.2 ± 0.1 mg/dL. For the same compound, the “Total Protein” value [2] was 7.8 ± 0.2 g/dL, the Triglycerides [2] was 59.3 ± 18.5 mg/dL and the ALT [3] was 53.0 ± 7.3 U/l. The AST [3] was 30.0 ± 3.1 U/l, the Albumin [3] was 4.8 ± 0.1 g/dL and the “Alkaline Phosphatase” value [3] was 101.5 ± 8.7 U/l. For the same compound, the BUN [3] was 18.3 ± 2.2 mg/dL, the Basophils [3] was 0.5 ± 2.3% and the CREAT [3] was 1.0 ± 0.0 mg/dL. The Chloride [3] was 108.5 ± 0.9 mEq/l, the Cholesterol [3] was 152.0 ± 19.4 mg/dL and the Eosinophils [3] was 1.4 ± 4.5%. The Erythrocytes [3] was 5.8 ± 4.5 x 10^6/mm^3, the GGT [3] was 69.3 ± 3.8 U/l and the GLUC [3] was 85.0 ± 8.7 mg/dL. The Hematocrit [3] was 43.3 ± 4.5, the Hemoglobin [3] was 14.1 ± 2.3 g/dL and the Leukocytes [3] was 9.7 ± 2.3 x 10^3/mm^3. The Lymphocytes [3] was 34.6 ± 4.5%, the MCH [3] was 24.3 ± 4.5 pg/cell and the MCV [3] was 74.9 ± 2.3 fl/cell. The Magnesium [3] was 1.9 ± 0.1 mg/dL, the Monocytes [3] was 5.6 ± 2.3% and the Neutrophils [3] was 5.4 ± 1.1 x 10^3/mm^3. For the same compound, the Phosphorus [3] was 4.2 ± 0.8 mg/dL, the Platelets [3] was 292.8 ± 48.1 x 10^6 and the Potassium [3] was 4.4 ± 0.2 mEq/l. For the same compound, the Sodium [3] was 149.5 ± 1.2 mEq/l, the “Total Bilirubin” value [3] was 0.1 ± 0.0 mg/dL and the “Total Protein” value [3] was 7.8 ± 0.1 g/dL. For the same compound, the Triglycerides [3] was 68.0 ± 10.6 mg/dL, the ALT [4] was 44.8 ± 2.0- U/l and the AST [4] was 49.8 ± 3.1 U/l. For the same compound, the Albumin [4] was 4.7 ± 0.0 g/dL, the “Alkaline Phosphatase” value [4] was 129.8 ± 19.2 U/l and the BUN [4] was 17.2 ± 1.9 mg/dL. For the same compound, the Basophils [4] was 0.6 ± 0.1%, the CREAT [4] was 1.0 ± 0.0 mg/dL and the Chloride [4] was 109.3 ± 1.5 mEq/l. For the same compound, the Cholesterol [4] was 154.5 ± 19.0 mg/dL, the Eosinophils [4] was 1.2 ± 0.3% and the Erythrocytes [4] was 5.9 ± 0.2 x 10^6/mm^3.
